According to patent US9650407B2, “Reprogramming of cellular adhesion” (The Regents of the University of California, priority 2011, dated 2017):

Experiments:
[1] = system: heterogeneous MCF10ARas/MCF10AWT microtissues; assay: Emergent phenotypes in heterogeneous MCF10ARas/MCF10AWT microtissues in 3D lrECM culture; type: cell-based; conditions: over 24 hr in culture vs DMSO control; LY294002 20 μM, PD325901 200 nM, Sorafenib 10 μM, PIK-90 2 μM; DNase added immediately after sorting
Description: Sorafenib was a gift from Kevan Shokat (UCSF0 and used at 10 μM. PIK-90 was purchased from Calbiochem and used at 2 μM. High activity DNase was purchased from Ambion. Ethidium homodimer-1 was purchased from Invitrogen and used at 1 μM.
The following antibodies were used for western blot: E-cadherin (BD Biosciences), tubulin (Sigma-Aldrich), phospho-Erk and phospho-Akt (Cell Signaling Technology), pan-Ras (Calbiochem), goat anti-mouse-HRP, and goat anti-rabbit-HRP (Thermo Scientific). The following antibodies were used for immunofluorescent staining: GM130, β-catenin (BD Biosciences), α6-integrin, laminin-5 (Millipore), cleaved caspase-3 (Cell Signaling Technology), Ki-67 (Sigma-Aldrich), gp135 (a gift from Keith Mostov, UCSF), Alexa Fluor 488- and 568-conjugated goat anti-mouse, anti-rat, and anti-rabbit antibodies (Invitrogen). F-actin was stained with Alexa Fluor 488- or 568-conjugated phalloidin (Invitrogen). LY294002 and PD325901 (Calbiochem) were used at 20 μM and 200 nM, respectively. TURBO DNase (Invitrogen) was used at a concentration of 10 U/ml.
Time-lapse images of aggregates were acquired on a Zeiss 200M inverted fluorescence microscope equipped with an XCite […] light source and a Hamamatsu camera. Field positions were programmed into Slidebook 5.0 software, and images were acquired at 30 min intervals. Samples were maintained in a humidified chamber at 37° C. and 5% CO2. Phenotypes were scored in Slidebook 5.0 software after acquisition. Microtissues that merged with other microtissues or single cells were not scored due to confounding effects on cell motility.
Apoptotic cells were excluded from phenotype quantification, as judged by cell morphology (FIG. 27, Panels A-E) or uptake of ethidium homodimer-1 (FIG. 28, Panels C, G, and H). Extruding microtis sues contained a single H2B-GFP-expressing cell pushed beyond the phase-bright boundary formed by the surrounding cells. Multicellular protrusions began with a single H2B-GFP-expressing cell that led the translation of the surrounding cells without becoming disconnected from the microtissue. H2B-GFP-expressing cells that broke away from tissues and moved alone were scored as protruding cells due to their altered morphology and motility.

[2] = system: Jurkat cells; assay: Time-lapse imaging of membrane dynamics of DNA-immobilized cells; type: cell-based; conditions: 1 uM latrunculin A; for membrane tubules from the cell surface: subsequent 100 uM nocodazole; for membrane microspikes: 100 uM nocodazole, 10 ng/mL PMA and 1.3 uM ionomycin
Description: Cells incorporating lipid-DNA were allowed to settle onto patterned glass within a PDMS-based flow cell for 30 minutes. Only cells hybridized to the surface via DNA were retained when the surface was washed with PBS. Patterned cells were imaged at 37° C. on a Zeiss Axiovert 200M at 200× or 400× magnification using phase contrast settings.
Cells were incubated with 1 uM latrunculin A either 10 (after nocodazole treatment) or 40 minutes prior to timelapse imaging. Cells were incubated with 10 ng/mL phorbol 12-myristate 13-acetate (PMA) and 1.3 uM ionomycin 4 hours prior to lipid incorporation. Cells were incubated with 100 uM nocodazole, with or without addition of latrunculin, 10 minutes prior to imaging.
Using ImageJ, cells were picked automatically from 20× fields of view and subsequently binarized. For each time point, scanning down the y-axis, the horizontal slice with the greatest width was identified. For each cell, the coefficient of variation was calculated for this set of widths, and this statistic was used to characterize each cell's membrane motility for binning. Error bars signify standard error.

Row | Structure (SMILES) | formation/frequency of motile multicellular protrusions [1] | frequency of basal extrusions [1] | membrane tubules from the cell surface [2] | membrane microspikes [2]
1 | O=C(NOC[C@H](O)CO)c1ccc(F)c(F)c1Nc1ccc(I)cc1F [PD325901] | blocked | blocked |  | 
2 | COc1ccc2c(c1OC)N=C(NC(=O)c1cccnc1)N1CCN=C21 [PIK-90] | reduced | slightly increasing |  | 
3 | CNC(=O)c1cc(Oc2ccc(NC(=O)Nc3ccc(Cl)c(C(F)(F)F)c3)cc2)ccn1 [Sorafenib] | blocked | blocked |  | 
4 | C/C1=C/C(=O)O[C@@H]2C[C@@H](CC[C@H](C)/C=C\C=C\CC1)O[C@@](O)([C@@H]1CSC(=O)N1)C2 [latruncluin A, latrunculin A] |  |  | rapid growth of long tubules | blocked the formation
5 | COC(=O)Nc1nc2ccc(C(=O)c3cccs3)cc2[nH]1 [nocodazole] |  |  | retraction of the membrane tubules | completely blocked
